The results in this text go back to paper PMC9887927, “Biochemical characterization and insights into the potency of the acidic Aspergillus niger NRC114 purified α-galactosidase in removing raffinose family oligosaccharides from soymilk yogurt” (BMC Biotechnology, 2023).

Structures are written as SMILES.

This experiment has as its system T1, Aspergillus niger NRC114 α-galactosidase.
T1 construct: gene aglB; native secreted enzyme purified from culture filtrate (ammonium sulfate, Sephadex G-100, DEAE-Sephadex A-50); 64 kDa monomer by SDS-PAGE
As to the kind of experiment: p-nitrophenol release, absorbance; Lineweaver-Burk plot. The experiment is classed as biochemical. The conditions noted are these: pH 3.5, 60 °C; substrate range printed as 0.04–0.8 µM; printed unit doubtful (probably mM: compared with mM literature values, assay stock 4 mM).

Consider `O=[N+]([O-])c1ccc(O[C@H]2O[C@H](CO)[C@H](O)[C@H](O)[C@H]2O)cc1` [p-nitrophenyl-α-D-galactopyranoside], for which the Km came out at 0.000401 mM.
